HELM strings list units from the 5' end as sugar, base in round brackets, then linkage (d deoxyribose, r ribose, m 2'-O-methyl, p phosphodiester). Strings are as the collection lists them; they lack the last nucleoside at the 3' end of the tested compound. [moe] = 2'-O-(2-methoxyethyl) (MOE); [sp] = phosphorothioate linkage; [m5C] = 5-methylcytosine
Molecular target: GFAP
Assay: mouse, dose not given
Conditions: ASO

| Substance | 3 h FOB score |
| --- | --- |
| RNA1{[moe]([m5C])[sp].[moe](A)p.[moe]([m5C])p.[moe](G)p.d(T)[sp].d([m5C])[sp].d(A)[sp].d([m5C])[sp].d(A)[sp].d(T)[sp].d(T)[sp].d([m5C])[sp].d(A)[sp].d([m5C])[sp].[moe](T)p.[moe](A)p.[moe](A)p.[moe](T)[sp].[moe](A)}$$$$ (last 3' nucleoside missing) | 0 score 0-7 |
| RNA1{[moe](A)[sp].[moe](G)p.[moe](T)p.[moe](A)p.[moe](T)[sp].d(T)[sp].d(A)[sp].d([m5C])[sp].d([m5C])[sp].d(T)[sp].d([m5C])[sp].d(T)[sp].d(A)[sp].[moe]([m5C])p.[moe](T)p.[moe](A)[sp].[moe](G)}$$$$ (last 3' nucleoside missing) | 3 score 0-7 |
| RNA1{[moe](A)[sp].[moe](T)p.[moe](T)p.[moe](T)p.d(A)[sp].d(T)[sp].d([m5C])[sp].d(T)[sp].d(G)[sp].d(T)[sp].d(G)[sp].d([m5C])[sp].d(T)[sp].d(T)[sp].[moe](T)p.[moe](A)p.[moe](G)p.[moe](T)[sp].[moe](G)}$$$$ (last 3' nucleoside missing) | 2 score 0-7 |
| RNA1{[moe](G)[sp].[moe]([m5C])p.[moe]([m5C])p.[moe](A)p.[moe](A)[sp].d(A)[sp].d(T)[sp].d([m5C])[sp].d([m5C])[sp].d([m5C])[sp].d([m5C])[sp].d(T)[sp].d([m5C])[sp].d(T)[sp].d(T)[sp].[moe]([m5C])p.[moe]([m5C])p.[moe]([m5C])[sp].[moe](A)}$$$$ (last 3' nucleoside missing) | 0 score 0-7 |
| RNA1{[moe](A)[sp].[moe](G)p.[moe](A)p.[moe](G)p.d(T)[sp].d(G)[sp].d(T)[sp].d(G)[sp].d(T)[sp].d(A)[sp].d(T)[sp].d(T)[sp].d(A)[sp].d(G)[sp].[moe](G)p.[moe](A)p.[moe](T)p.[moe]([m5C])[sp].[moe]([m5C])}$$$$ (last 3' nucleoside missing) | 5 score 0-7 |
| RNA1{[moe]([m5C])[sp].[moe](G)p.[moe](T)p.[moe]([m5C])p.[moe](A)[sp].d([m5C])[sp].d(A)[sp].d(T)[sp].d(T)[sp].d([m5C])[sp].d(A)[sp].d([m5C])[sp].d(T)[sp].[moe](A)p.[moe](A)p.[moe](T)[sp].[moe](A)}$$$$ (last 3' nucleoside missing) | 0 score 0-7 |
| RNA1{[moe]([m5C])[sp].[moe](T)p.[moe](G)p.[moe]([m5C])p.[moe]([m5C])p.[moe](A)p.d(T)[sp].d(T)[sp].d(T)[sp].d(A)[sp].d(T)[sp].d([m5C])[sp].d(T)[sp].d(G)[sp].d(T)[sp].d(G)[sp].[moe]([m5C])p.[moe](T)[sp].[moe](T)}$$$$ (last 3' nucleoside missing) | 1 score 0-7 |
| RNA1{[moe](G)[sp].[moe](T)p.[moe](G)p.[moe]([m5C])p.d(T)[sp].d(T)[sp].d(T)[sp].d(T)[sp].d(G)[sp].d([m5C])[sp].d([m5C])[sp].d([m5C])[sp].d([m5C])[sp].d([m5C])[sp].[moe](T)p.[moe](G)p.[moe](T)p.[moe](A)[sp].[moe](G)}$$$$ (last 3' nucleoside missing) | 3 score 0-7 |
| RNA1{[moe](T)[sp].[moe](G)p.[moe](T)p.[moe](G)p.[moe](T)p.d(A)[sp].d(T)[sp].d(T)[sp].d(A)[sp].d(G)[sp].d(G)[sp].d(A)[sp].d(T)[sp].d([m5C])[sp].d([m5C])[sp].[moe]([m5C])p.[moe](A)p.[moe](T)[sp].[moe]([m5C])}$$$$ (last 3' nucleoside missing) | 3 score 0-7 |
| RNA1{[moe](A)[sp].[moe](G)p.[moe]([m5C])p.[moe](A)p.[moe](T)[sp].d(T)[sp].d(T)[sp].d(G)[sp].d(T)[sp].d([m5C])[sp].d(T)[sp].d(T)[sp].d(T)[sp].[moe](A)p.[moe](T)p.[moe](T)[sp].[moe](T)}$$$$ (last 3' nucleoside missing) | 3 score 0-7 |

Source: the OligoGym collection
